Test results published in US9801922B2, “Compositions and methods of treating cancer” (UNIVERSITY OF IOWA RESEARCH FOUNDATION, priority 2011, dated 2017).

Key:
Sum159 xenograft tumors = test: ALDH+ cells in Sum159 xenografts in vivo; design: species or system nude mice; conditions: 100 μM DTPP in drinking water 2 weeks; BSO 675 mg/kg i.p.; Au 2.7 mg/kg i.p.
Description: FIGS. 1A-D: BSO, DTPP and AUR treated SUM159, MDA-MB231 and HMEC Clonogenic survival. In Panel A (SUM 159), B (MDA-MB231) and C(HMEC), 150,000 cells/dish SUM159 or MDA-MB231 and 300,000 cells/dish were plated in 60 mm tissue culture dishes. After 48 hours, cells were given fresh complete HMECs media and treated with 100 μM BSO+/1 μM DTPP for 24 hours. 500 nM AUR were added 15 mins before the trypsinization of cells for clonogenic survival assay. In panel A-C, The error bars represent mean±1 SD of n=1 treatment dishes done in 3 separate experiments where each treatment dish was used to prepare 6-10 replicate cloning dishes for analysis. *p<0.001 as compared to Control. […] Mice growing Sum159 xenograft tumors were treated with 100 μM DTPP in drinking water for 2 weeks followed by i.p. injections of BSO 675 mg/kg followed in 2 hrs with Au 2.7 mg/kg. The day following injections tumors were harvested, digested and stained for ALDH positive cells. Each bar represents an average of at least three tumors. Error bars are SEM. *p<0.05 vs. control.
To address this question, SUM159 were treated with these drugs as described in FIG. 1, and aldehyde dehydrogenase (ALDH) activity, a marker of cancer stem cells was examined by ALDEFLUOR assay. […]

[1] = system: Human thioredoxin-1 (hTrx-1); test: Thioredoxin native redox western blot; type: cell-based; conditions: SUM159
Description: FIG. 7: Human thioredoxin-1 (hTrx-1) native redox western blot analysis of BSO, DTPP and AUR treated SUM159. Asynchronously growing cultures of SUM159 were plated and treated as described in FIG. 1. Cells were harvested and scraped in PBS at 4° C. Whole cell homogenates were used for native gel redox western blot analysis of […].
Thioredoxin Redox Western: The human thioredoxin-1 protein level was determined by Thioredoxin redox western. Approximately 2-3 million treated or untreated SUM159 cells were lysed in G-lysis buffer (50 mM Tris-HCl, pH 8.3, 3 mM EDTA, 6 M guanidine-HCl, 0.5% Triton X-100) containing 50 mM iodoacetic acid (pH 8.3). The lysate was incubated in the dark for thirty minutes. The lysates were then centrifuged in G-25 microspin columns (GE Healthcare). Protein was then quantified, from the eluent by performing a Bradford protein assay, as previously described (Bradford, M. M. A rapid and sensitive method for the quantitation of microgram quantities of protein utilizing the principle of protein-dye binding. Anal Biochem 72:248-254; 1976). Equal amounts of protein were then added to a 15% acrylamide native gel. The gel was then run at 100 V for approximately 1.5 h. The proteins contained in the gel were then transferred to a nitrocellulose membrane (BIORAD Labs), using a semi-dry transfer protocol. The nitrocellose membrane was then washed in PBST (Phosphate buffered saline with 0.1% Tween) before being incubated at 4 overnight with the primary antibody, 1:1000 goat anti-hTrx-1 (American Diagnostica, Inc.) in PBST with 2% BSA. […]

HMECs = test: CDCFH2 / CDCF probe labeling (intracellular hydroperoxides), HMEC; type: cell-based, human; conditions: oxidation-insensitive probe
Description: FIGS. 5A-5D: CDCFH2 oxidation sensitive and CDCF oxidation insensitive probe labeling of BSO, DTPP, and AUR exposed SUM159 and HMECs cells. Asynchronously growing cultures of SUM159 (Panels A, B) and HMECs (Panes C, D) were plated and treated as described in FIG. 1. Monolayer cultures were harvested and trypsinized, washed once with PBS then labeled in PBS with either CDCFH2 (Panesl A, C) or CDCF (Panels B, D)(10 μg/mL, in 0.1% DMSO 15 minutes) at 37° C. Mean fluorescence intensity (MFI) of 10,000 cells was analyzed by flow cytometry. Samples were assayed in triplicate; Mean±1 SEM of 3 separate experiments containing 3 treatment dishes per group (n=9), *p<0.001 as compared to Control.
Measurement of Intracellular Hydroperoxides: Steady-state levels of hydroperoxides were estimated using the oxidation sensitive {5-(and-6)-carboxy-2′,7′-dichlorodihydrofluorescein diacetate, (CDCFH2)} and oxidation-insensitive {5-(and-6)-carboxy-2′,7′-dichlorofluorescein diacetate, (CDCF)} fluorescent dyes purchased from Molecular Probes. Cells were plated and treated with BSO, DTPP and AUR as described above. […] Samples were analyzed using a FACScan flowcytometer (Becton Dickinson Immuno-cytometry System, INC., Mountain View, Calif.) (excitation 488 nm, emission 530 nm band-pass filter). The MFI of 10,000 cells was analyzed in each sample and corrected for autofluorescence from unlabeled cells. […]

Structure (SMILES): CC[PH](CC)(CC)[Au][S][C@@H]1O[C@H](COC(C)=O)[C@@H](OC(C)=O)[C@H](OC(C)=O)[C@H]1OC(C)=O [AUR, S-triethylphosphinegold(I)-2,3,4,6-tetra-O-acetyl-1-thio-β-D-glucopyranoside]
- effect on ALDH positive cells in xenografts, in words (Sum159 xenograft tumors): decrease of ALDH+cells
- increase of ratio of oxidized thioredoxin to total thioredoxin compared to control [1]: around 2 fold
- increase of the ratio of oxidized Trx-1 to reduced Trx-1 ([1]; 15 min AUR): 2 fold

Structure (SMILES): CCCCS(=N)(=O)CCC(N)C(=O)O [BSO, L-buthionine-[S,R]-sulfoximine, reference compound]
- effect on ALDH positive cells in xenografts, in words (Sum159 xenograft tumors): decrease of ALDH+cells
- ratio of oxidized thioredoxin to total thioredoxin, in words [1]: no ratio change

Structure (SMILES): CCCCCCCCCC[P+](c1ccccc1)(c1ccccc1)c1ccccc1 [DTPP, Decyl-Triphenylphosphonium]
- CDCF labeling signal relative to control (HMECs): 2 fold
